Patent US8232407B2, “Nitrogenous heterocyclic compounds with insecticidal activity, and the preparation and use thereof” (East China University of Science and Technology, priority 2008, dated 2012)

How the values were obtained:
[1] = tested on: Nilaparvata lugens; experiment: Insecticidal activities to plant hopper, spraying method; format: in vivo; details: in vivo
Procedure: (§1) Mortality (%)=(the number of the survival aphis in control group−the number of the survival aphis in the treatment group)/the number of the survival aphis in control group×100%
(2): Insecticidal Activities to Plant hopper
Plant hopper (Nilaparvata lugens), which belongs to Homoptera and has a piercing-sucking mouthpart, is a common insect for agricultural plant. Nilaparvata lugens was tested by spraying method.
Procedure: the test compound was exactly formulated with acetone to form solutions having concentrations of 500, 250, 100, 50, 25, 12.5, 6.25, 3.13, 1.57 and 0.79 ppm, respectively. Aqueous acetone solution was used as control. Each treatment was repeated for 3 tumblers (3 times). Two ml of solution was sprayed uniformly to each tumbler with a mini manual sprayer. 10 insects were introduced to every basin 6 hours before spraying. Three series of experiments were conducted. The number of killed insects was counted after 24 hours to calculate the mortality according to the above mentioned formula.

[2] = tested on: Aphis craccivoral; experiment: Insecticidal activities to aphids, immersion method; format: in vivo; details: in vivo
Procedure: (1): Insecticidal Activities to Aphids
Aphis (Aphis craccivoral), which belongs to Homoptera and has a piercing-sucking mouthpart, is a common insect for agricultural plant. Aphis craccivoral was tested by immersion method.
Procedure: exactly weighed various samples were independently added to N,N-dimethylformamide to form 10 g/L stock solutions. The stock solutions were diluted with 0.2 mL/L aqueous Triton X-100 solution to a concentration of 500 ppm. After stably sucking on bean sprout, the wingless adult aphis together with bean sprout were dipped into 500 ppm dilution, taken out after 5 seconds, and the excess dilution was sucked off with bibulous paper. The treated wingless adult aphis was incubated in clean vessel at a constant temperature of 23° C. Each concentration was repeated for 3 times and the control group was treated with 0.2mL/L aqueous Triton X-100 solution. The number of killed aphis was counted after 24 hours and the mortality was to calculated according to the following formula:
as §1

| SMILES | Nilaparvata lugens Mortality (%) 500 ppm [1] [%] | Aphis craccivoral Mortality (%) 500 ppm [2] [%] |
| --- | --- | --- |
| CN=C(C(=C(C)c1ccc[nH]1)[N+](=O)[O-])N(C)C(C)c1ccc(Cl)nc1 (stereo not shown) [Compound 216] | 100 | 100 |
| CCN(Cc1ccc(Cl)nc1)C(=NC)C(=Cc1ccc([N+](=O)[O-])s1)[N+](=O)[O-] [Compound 186] | 100 | 100 |
| CN=C(C(=C(C)c1ccc[nH]1)[N+](=O)[O-])N(C)Cc1ccc(Cl)nc1 [Compound 194] | 100 | 98 |
| CN=C(C(=Cc1ccco1)[N+](=O)[O-])N(C)Cc1ccc(Cl)nc1 [Compound 161] | 65 | 100 |
| CN=C(C(=Cc1ccsc1)[N+](=O)[O-])N(C)Cc1cnc(Cl)s1 [Compound 221] | 87 | 78 |
| CCN(C(=NC)C(=Cc1cccs1)[N+](=O)[O-])C(C)c1ccc(Cl)nc1 (stereo not shown) [Compound 210] | 100 | 100 |
| CCN=C(C(=Cc1ccc(Br)o1)[N+](=O)[O-])N(C)Cc1ccc(Cl)nc1 [Compound 174] | 100 | 100 |
| CCN(C(=NC)C(=Cc1ccc([N+](=O)[O-])o1)[N+](=O)[O-])C(C)c1ccc(Cl)nc1 (stereo not shown) [Compound 207] | 100 | 94 |
| CCN=C(C(=Cc1ccc([N+](=O)[O-])o1)[N+](=O)[O-])N(C)Cc1ccc(Cl)nc1 [Compound 172] | 100 | 96 |
| CCN(Cc1ccc(Cl)nc1)C(=NC)C(=C(C)c1ccc([N+](=O)[O-])o1)[N+](=O)[O-] [Compound 197] | 100 | 98 |
| CN=C(C(=Cc1ccc([N+](=O)[O-])o1)[N+](=O)[O-])N(C)Cc1cnc(Cl)s1 [Compound 217] | 43 | 77 |
| CCN=C(C(=Cc1ccc(Cl)o1)[N+](=O)[O-])N(CC)Cc1ccc(Cl)nc1 [Compound 192] | 100 | 97 |
| CN=C(C(=Cc1cccs1)[N+](=O)[O-])N(C)Cc1cnc(Cl)s1 [Compound 220] | 67 | 80 |
| CCN(Cc1ccc(Cl)nc1)C(=NC)C(=C(C)c1ccc[nH]1)[N+](=O)[O-] [Compound 204] | 100 | 92 |
| CCN(Cc1ccc(Cl)nc1)C(=NC)C(=Cc1cccs1)[N+](=O)[O-] [Compound 184] | 100 | 98 |
| CCN(C(=NC)C(=Cc1ccoc1)[N+](=O)[O-])C(C)c1ccc(Cl)nc1 (stereo not shown) [Compound 206] | 44 | 65 |
| CCN(Cc1ccc(Cl)nc1)C(=NC)C(=Cc1ccc[nH]1)[N+](=O)[O-] [Compound 243] | 100 | 96 |
| CN=C(C(=Cc1ccc(Br)o1)[N+](=O)[O-])N(C)Cc1ccc(Cl)nc1 [Compound 235] | 86 | 91 |
| CN=C(NCc1ccc(Cl)nc1)C(=Cc1ccc(Cl)o1)[N+](=O)[O-] [Compound 154] | 65 | 52 |
| CCN(Cc1ccc(Cl)nc1)C(=NC)C(=C(C)c1ccco1)[N+](=O)[O-] [Compound 195] |  | 100 |

| SMILES | Nilaparvata lugens Mortality (%) 500 ppm [1] [%] | Aphis craccivoral Mortality (%) 500 ppm [2] [%] |
| --- | --- | --- |
| CN=C(C(=Cc1ccc([N+](=O)[O-])s1)[N+](=O)[O-])N(C)Cc1ccc(Cl)nc1 [Compound 238] | 98 | 91 |
| CCN(Cc1ccc(Cl)nc1)C(=NC)C(=Cc1ccco1)[N+](=O)[O-] [Compound 179] | 100 | 100 |
| CN=C(NCc1ccc(Cl)nc1)C(=Cc1ccc([N+](=O)[O-])o1)[N+](=O)[O-] [Compound 153] | 87 | 56 |
| CCN(Cc1cnc(Cl)s1)C(=NC)C(=Cc1ccc([N+](=O)[O-])o1)[N+](=O)[O-] [Compound 227] | 100 | 100 |
| CN=C(NCc1ccc(Cl)nc1)C(=Cc1ccc(Br)o1)[N+](=O)[O-] [Compound 155] | 36 | 67 |
| CN=C(NCc1ccc(Cl)nc1)C(=Cc1ccoc1)[N+](=O)[O-] [Compound 152] | 64 | 67 |
| CN=C(NCc1ccc(Cl)nc1)C(=Cc1ccsc1)[N+](=O)[O-] [Compound 157] | 97 | 100 |
| CN=C(C(=Cc1ccc(Cl)o1)[N+](=O)[O-])N(C)Cc1ccc(Cl)nc1 [Compound 164] | 100 | 100 |
| CCN=C(C(=Cc1ccc(Cl)o1)[N+](=O)[O-])N(C)Cc1ccc(Cl)nc1 [Compound 173] | 85 | 87 |
| CCN(Cc1ccc(Cl)nc1)C(=NC)C(=C(C)c1ccsc1)[N+](=O)[O-] [Compound 201] | 100 | 100 |
| CN=C(C(=Cc1ccc(Cl)s1)[N+](=O)[O-])N(C)Cc1cnc(Cl)s1 [Compound 223] | 53 | 65 |
| CN=C(C(=Cc1ccc[nH]1)[N+](=O)[O-])N(C)Cc1cnc(Cl)s1 [Compound 224] | 52 | 32 |
| CCN(Cc1cnc(Cl)s1)C(=NC)C(=Cc1ccoc1)[N+](=O)[O-] [Compound 226] | 49 | 68 |
| CCN(Cc1ccc(Cl)nc1)C(=NC)C(=Cc1ccc(Br)o1)[N+](=O)[O-] [Compound 183] | 100 | 100 |
| CN=C(C(=C(C)c1ccsc1)[N+](=O)[O-])N(C)C(C)c1ccc(Cl)nc1 (stereo not shown) [Compound 213] | 68 | 89 |
| CCN(Cc1ccc(Cl)nc1)C(=NC)C(=C(C)c1ccc(Cl)o1)[N+](=O)[O-] [Compound 198] | 100 | 86 |
| CCN(Cc1ccc(Cl)nc1)C(=NC)C(=Cc1ccc(Cl)o1)[N+](=O)[O-] [Compound 182] | 100 | 100 |
| CN=C(C(=Cc1ccsc1)[N+](=O)[O-])N(C)Cc1ccc(Cl)nc1 [Compound 167] | 100 | 100 |
| CN=C(C(=Cc1ccc([N+](=O)[O-])s1)[N+](=O)[O-])N(C)Cc1cnc(Cl)s1 [Compound 222] | 67 | 46 |
| CCN=C(C(=Cc1ccoc1)[N+](=O)[O-])N(CC)Cc1ccc(Cl)nc1 [Compound 190] | 100 | 87 |
